Data on two compounds can be found in US10473670B2 (University of Kentucky Research Foundation, priority 2016, dated 2019).

In experiment [1] the test system is AMPK. Nature of the experiment: Western blot of p-AMPK in FHs 74 Int cells. The class given is cell-based, human. As to conditions: FHs 74 Int cells; AICAR 1 mM 2 h, oleate 0.1 mM 1 h. A general note: A western blot detects proteins with antibodies after separation by electrophoresis.
Procedure: G. Human small intestinal cells (FHs74Int) (left panel) and RIE-1 cells (right panel) were treated with the indicated concentrations of oleate for 1 h and lysates were analyzed by western blotting. […] All data are mean+/−SD. Experiments in vitro were at least repeated three times.
The subject of another experiment is FHs74Int cells. Nature of the experiment: In vitro FA absorption (BODIPY FL C16) in FHs74Int cells. The class given is cell-based, human. As to conditions: AICAR 1 mM 3 h, BODIPY FL C16 15 min.
A further experiment has as its system BON cells. Nature of the experiment: NT secretion from BON cells (NT EIA). The class given is cell-based, human. Here is the method:
FIGS. 14A-C show graphs and images illustrating that FFA activates AMPK signaling and increases NT secretion. A. Plasma NT of male C57BL/6 mice (5-mo-old, n=5) 1 h after olive oil (OO) oral gavage. *p<0.05 vs. NC; n=5. B. NT EIA (upper panels) and western blotting (lower panels) on BON cells treated with or without OA for 1 h. C. NT EIA (upper panels) and western blotting (lower panels) on QGP-1 cells treated with or without OA for 1 h. *p<0.05 vs. control; n=6. All data are mean+/-SD. FIGS. 16A-D show graphs and images illustrating Cross-talk of AMPK and mTORC1 signaling. A. Diagram of cross-talk of AMPK and mTORC1 signaling. B. Western blot analysis of BON cells treated with or without AICAR (left panel) or 1 mM AICAR and CC (10 μM) (right panel) for 3 h. C. NT EIA (upper panel) and western blotting (lower panel) on BON cells expressing control vector and myc-raptor […]/[…] treated with AICAR (1 mM) for 3 h. D. NT EIA (upper panel) and western blotting (lower panel) on BON cells expressing control vector and NTC and TSC2 siRNA treated with AICAR (1 mM) for 3 h. *p<0.05 vs. control in vector, †p<0.05 vs. AICAR in vector (C); *p<0.05 vs. control in NTC siRNA, †p<0.05 vs. control in NTC siRNA, ‡ p<0.05 vs. AICAR in NTC siRNA (D). n=6. All data are mean+/-SD. […]

Experiment [2] concerns mTORC1 and ERK1/2 signaling. Description: Western blot of p-S6K1 and p-ERK1/2 in BON cells. The class given is cell-based, human. To be noted: AICAR 3 h. As for the experimental part:
FIGS. 16A-D show graphs and images illustrating Cross-talk of AMPK and mTORC1 signaling. A. Diagram of cross-talk of AMPK and mTORC1 signaling. B. Western blot analysis of BON cells treated with or without AICAR (left panel) or 1 mM AICAR and CC (10 μM) (right panel) for 3 h. C. NT EIA (upper panel) and western blotting (lower panel) on BON cells expressing control vector and myc-raptor S722A/S792A treated with AICAR (1 mM) for 3 h. D. NT EIA (upper panel) and western blotting (lower panel) on BON cells expressing control vector and NTC and TSC2 siRNA treated with AICAR (1 mM) for 3 h. *p<0.05 vs. control in vector, †p<0.05 vs. AICAR in vector (C); *p<0.05 vs. control in NTC siRNA, †p<0.05 vs. control in NTC siRNA, ‡ p<0.05 vs. AICAR in NTC siRNA (D). n=6. All data are mean+/−SD.
AMPK activation inhibits mTORC1 through raptor, a component of mTORC1, or TSC2, a negative regulator of mTORC1 signaling. […] Moreover, a stable BON overexpression cell line was generated with a mutant raptor vector in which both Ser722 and Ser792 (AMPK phosphorylation sites) are replaced by alanine. […] Together, these findings further indicate the interaction of AMPK, mTORC1 and ERK signaling in the regulation of NT secretion.

A further experiment relates to QGP-1 cells. Nature of the experiment: NT secretion from QGP-1 cells (NT EIA). As to conditions: OA 1 h. The class given is cell-based, human. As for the experimental part:
FIGS. 14A-C show graphs and images illustrating that FFA activates AMPK signaling and increases NT secretion. A. Plasma NT of male C57BL/6 mice (5-mo-old, n=5) 1 h after olive oil (OO) oral gavage. *p<0.05 vs. NC; n=5. B. NT EIA (upper panels) and western blotting (lower panels) on BON cells treated with or without OA for 1 h. C. NT EIA (upper panels) and western blotting (lower panels) on QGP-1 cells treated with or without OA for 1 h. *p<0.05 vs. control; n=6. All data are mean+/−SD. Fifty μl of media were used to measure NT levels using NT EIA Kit from Phoenix Pharmaceuticals (Burlingame, Calif.) as described previously^30-33.

The test system of experiment [3] is AMPK. Nature of the experiment: Western blot of p-AMPK and p-ACC in BON cells. The class given is cell-based, human. As to conditions: OA 1 h. As for the experimental part: (§1) FIGS. 14A-C show graphs and images illustrating that FFA activates AMPK signaling and increases NT secretion. A. Plasma NT of male C57BL/6 mice (5-mo-old, n=5) 1 h after olive oil (OO) oral gavage. *p<0.05 vs. NC; n=5. B. NT EIA (upper panels) and western blotting (lower panels) on BON cells treated with or without OA for 1 h. C. NT EIA (upper panels) and western blotting (lower panels) on QGP-1 cells treated with or without OA for 1 h. *p<0.05 vs. control; n=6. All data are mean+/−SD. Tissues and cells were lysed with lysis buffer (Cell Signaling Technology), and equal amounts of protein were resolved on 4-12% NuPAGE BisTris gels (Life Technologies) and electrophoretically transferred to polyvinylidene difluoride (PVDF) membranes; the membranes were incubated with primary antibodies overnight at 4° C. followed by secondary antibodies conjugated with horseradish peroxidase. Membranes were developed using chemiluminescence (ECL) Western Blotting System from GE Healthcare Life Science (Piscataway, N.J.) and Thermo Scientific (Waltham, Mass.).

Experiment [4] relates to AMPK. Nature of the experiment: Western blot of p-AMPK and p-ACC in QGP-1 cells. The class given is cell-based, human. As to conditions: OA 1 h. Here is the method:
as §1

The next experiment deals with STC-1 cells. Nature of the experiment: NT release from STC-1 cells (NT EIA). As to conditions: OA 0.25 mM, phorbol myristate acetate 100 nM. The class given is cell-based, mouse. The text has this: (§2) FIGS. 15A-B show graphs and images illustrating that FFAR1 and FFAR4 agonists increase AMPK activity. A. NT IF (left panel), NT EIA (middle panel, *p<0.05 vs. control) and western blotting (right panel) of STC-1 cells. B. Real-time PCR. GAPDH was used as the internal control (BON cell expression was arbitrarily set at 1). All data are mean+/−SD.
(§3) FFAR1 (previously known as GPR40) and FFAR4 (previously known as GPR120) are medium- to long-chain FFA G-protein-coupled receptors that have been implicated in the regulation of energy homeostasis and hormone secretion.

In experiment [5] the test system is AMPK. Nature of the experiment: Western blot of p-AMPK in STC-1 cells. As to conditions: agonists 1 μM, 90 min, or OA. The class given is cell-based, mouse.
Excerpt: as §2, §3

Procedure for FHs74Int cells: All data are mean+/−SD. Experiments in vitro were at least repeated three times.
For in vitro FA absorption or lipid accumulation studies, FHs74Int and RIE-1 cells were incubated with either bovine serum albumin (BSA) (Sigma-Aldrich) or BSA-conjugated BODIPY® FL C16 (4,4-Difluoro-5,7-Dimethyl-4-Bora-3a,4a-Diaza-s-Indacene-3-Hexadecanoic Acid) (Life Technologies) for 15 min. BSA-conjugated oleate sodium was also used to treat cells for 1 h; cells were then stained with BODIPY® 493/503 (4,4-Difluoro-1,3,5,7,8-Pentamethyl-4-Bora-3a,4a-Diaza-s-Indacene) (Life Technologies). Images were observed under an FV1000 Olympus confocal microscope with a ×60, 1.35-numerical aperture oil objective (Olympus, Tokyo, Japan). Images were analyzed with Olympus FV10-ASW2.1 software. To quantify green intensity, 3 images were taken at consistent conditions and 10 cells from each image were analyzed using the area tool. […] Cells were collected, lysed and triglyceride content was measured by Triglyceride Determination Kit (Sigma-Aldrich). All experiments were carried in serum-free medium and fatty acid-free BSA was used at 0.1%.

`NC(=O)c1ncn([C@@H]2O[C@H](CO)[C@@H](O)[C@H]2O)c1N` [AICAR, 5-aminoimidazole-4-carboxamide-1-β-D-ribofuranoside]: the “oleate-stimulated p-AMPK” value with AMPK [1] was “further increased oleate-stimulated p-AMPK”. For the same compound, the FA absorption entry in the experiment on FHs74Int cells is recorded as “concomitantly decreased FA absorption”. In the experiment on BON cells (AICAR 1 mM 3 h), the NT secretion entry is “stimulated NT secretion”. Besides, in experiment [2], the “expression of p-S6K1” value is listed as “decreased expression of p-S6K1” and the p-ERK1/2 result is given as “increased p-ERK1/2”.

For the compound `CCCCCCCC/C=C\CCCCCCCC(=O)O` [OA, oleic acid], the NT secretion entry in the experiment on BON cells (OA 1 h) and in the experiment on QGP-1 cells was “stimulated NT secretion” throughout. Further, the “phosphorylation of AMPK (p-AMPK)” value in the experiment with AMPK [3] and in the experiment on AMPK [4] was “increased phosphorylation” each time. The “phosphorylation of acetyl-CoA carboxylase (p-ACC)” value in the experiment with AMPK [3] and with AMPK [4] was “increased phosphorylation” throughout. In addition, the NT release entry with STC-1 cells was “stimulated NT release”. Moreover, the p-AMPK expression entry with AMPK [5] was “increased p-AMPK expression”.
